According to patent US11851459B2, “Methods and uses of modulators of anaphase promoting complex (APC) activity for treating cancer” (University of Saskatchewan, priority 2018, dated 2023):

How the values were obtained:
wild type (WT) cells [1] = experiment: Growth of WT yeast expressing peptides, spot dilution; type: cell-based; settings: peptides expressed in WT yeast
Excerpt: A. Yeast 2-hybrid (Y2H) cells expressing the APC subunit bait and the galactose inducible Apc10 peptide prey grown on glucose or galactose. Cells co-expressing the Apc5 or Apc10-bait and Apc10 aptamer-prey vectors were spotted onto the appropriate media, in the presence or absence of galactose (the aptamers are Gal inducible), to confirm Y2H interactions. Growth on trp^− his^− media ensures both plasmids are maintained. A Y2H interaction will drive expression of the ADE2 gene, allowing growth on ade^− media. B. Aptamers that bind Apc10 can suppress APC mutant phenotypes. Spot dilutions of apc10Δ cells expressing an empty vector control or the one of 6 Apc10 aptamers tested. Log phase cells were 10-fold serially diluted and spotted onto plates containing either 2% glucose or 2% galactose. The plates were then incubated at 30° C. (permissive temperature) and 34° C. (restrictive stress). C. Peptides identified as binding to the yeast Apc10 APC subunit using the Y2H screen increase growth of wildtype (WT) cells. A series of APC binding peptides were transformed into WT yeast cells, spot diluted, and grown at 30° C. on media supplemented with the normal carbon source (2% glucose). […]
The six peptide expressing vectors were transformed into apc10Δ cells and assessed for temperature sensitive growth. […]

wild type (WT) cells [2] = experiment: C43-4 mutant peptides, spot dilution under temperature and UV stress, WT cells; type: cell-based, yeast; settings: low level expression on glucose
Experimental: The cells were exposed to 5 sec of UV from a UV box prior to incubation. The plus signs define growth compared to the empty vector control.
Residues 2, 7, 8, 10, 12 and 14 of peptide C43-4 are conserved with Htz1. All of these residues were mutated to alanine (FIG. 10). Peptides that contained mutations designed to determine which amino acids were required for function were generated. These mutant peptides were grown in wild type cells and in cells that had APC10 mutated, under temperature and UV stress conditions (FIGS. 10-12).
These cells were spot diluted on Trp^− plates and grown at the temperatures shown and/or exposed to ultraviolet (UV) irradiation (FIGS. 10-12). At low level expression on glucose, some of the mutations caused stress dependent phenotypes.
• 1. Cells were cultured overnight in Trp^− 2% glucose media • 2. The growth of the cells was determined by measuring the optical density (OD) of the cells at 600 nm (OD600) • 3. Cells were diluted to OD600 of 1 with fresh culture media • 4. 100 ul of each culture was pipetted into a well of a 96 well plate • 5. 10 ul of the each starting culture was pipetted into 90 ul of water in 4 additional wells to make a 10-fold serial spot dilution • 6. 5 ul from each serial dilution was spotted onto plates containing standard growth media with either 2% glucose or 2% galactose using a multi-pipettor • 7. The plates were exposed to UV • 8. […]

APC (substrate Cyclin B) = experiment: Cyclin B protein levels in MCF7 cells; type: cell-based, human; settings: MCF7, 48 hrs; 1 mM metformin or transient transfection of peptide plasmid
Experimental: MCF7 breast cancer cells were treated with 1 mM metformin or transiently transfected with an APC activating peptide (C43-4) for 48 hrs, then harvested for assessment of Cyclin B protein levels. Cyclin B is an APC target.
A mouse model for growing patient derived breast tumor cells obtained from a patient with triple negative breast cancer was developed. This patient had developed resistance to Doxorubicin. Tumors growing in these mice grow rapidly. Mice growing the patient derived xenografted (PDX) tumor were injected with various amounts of M2I-1. […] Since the APC was activated in the canines tested in this study following treatment with metformin, it was asked if metformin can directly activate the APC. Reduced APC substrate Cyclin B levels following metformin treatment in human MCF7 breast cancer cells was observed, similar to that observed when MDF7 cells express the C43-4 plasmid (see below for more on this plasmid) (FIG. 21).

[3] = system: APC (substrates Cyclin B, Securin, Cdc20, HURP); experiment: APC substrate westerns in MDA-MB-231 cells expressing peptides; type: cell-based, human
Experimental: A. Transient transfection of the C43-4 peptide plasmid into human triple negative MDA-MB-231 breast cancer cells followed by Western blot analysis of lysates against Cyclin B, Securin and Cdc20 showing enhanced protein loss. B. Cells in A were treated with DOX (1 uM) for 48 hrs with cell viability measured using an MTT assay kit. The experiment was done in triplicate with standard error of the means shown.
A. Stable integration of C43-4 in MDA-MB-231 cells was established by selection of transfected cells on Geneticin for 7 days. Westerns against APC substrates show APC activation. B. Cells in A were treated with DOX (1 uM) for 48 hrs with cell viability measured using an MTT assay kit. Mean and SEM of 3 biological repeats.
A. TNBC MDA-MB-231 cells stably expressing APC binding peptides activate the APC. Cells were grown to confluence and then used to prepare protein lysates. The lysates were used to measure levels of the APC substrate CDC20, which will be reduced if the APC is activated. Cells stably expressing the pcDNA empty vector were used as a control. B. In a similar experiment, MDA-MB-231 cells stably expressing the APC binding peptides shown, or the empty vector control, were used to measure protein levels of the APC substrate HURP using Westerns. C. Triplicate blots as in B were scanned, normalized to tubulin and plotted. Error of the mean is shown. Significant changes are indicated. D. MDA-MB-231 cells stably expressing the empty pcDNA vector, or the C43-4 and C13-3 APC binding peptides, were treated with 1 μM Doxorubicin for 24 hrs. Cell viability was measured using an MTT viability assay.
The C43-4 peptide sequence was cloned into the human expression vector pcDNA. This construct was transiently, and stably, expressed in human breast cancer cell line MDA-MB-231. […] In 231 cells, which are triple negative, aggressive and somewhat resistant to Doxorubicin, the transiently and stably transfected C43-4 peptide resensitized them to DOX treatment (FIGS. 22B and 23B).
In FIG. 26B, MDA-MB-231 cells were also stably transfected with the peptides C1-8, C2-4B, C3-1B, and C9-5. Levels of the APC substrate HURP were measured in lysates prepared from these cells. […] The empty vector pcDNA was also stably expressed in 231 cells and used as a control.

[4] = transiently transfected MDA-MB-231

| Sequence | growth / viability of WT cells (wild type (WT) cells [1]) | stress resistance (growth compared to empty vector) (wild type (WT) cells [2]) | APC substrate Cyclin B protein levels (APC (substrate Cyclin B)) | levels of the APC substrate CDC20 ([3]; MDA-MB-231 stably expressing peptides) | protein levels of CyclinB ([3]; stably transfected MDA-MB-231) | APC substrate Cdc20 [3, 4] | APC substrate Cyclin B [3, 4] | APC substrate Securin [3, 4] | levels of the APC substrate HURP ([3]; MDA-MB-231 stably transfected, normalized to tubulin) |
| --- | --- | --- | --- | --- | --- | --- | --- | --- | --- |
| NGSSHNDLRVRRLTLISRLC [C43-4] | increases the viability of WT cells | increased stress resistance | reduces protein levels | reduce levels | reduced protein levels | reduced | reduced | reduced | – |
| RMPQWWQWMWV [C2-4B] | – | – | – | – | – | – | – | – | Only C1-8 did not reduce HURP levels |
